Data on 85 compounds can be found in the Kinase Knowledgebase extract (Sharma et al. 2016).

Several values for one entry are separate records, joined by “and”; a condition that tells them apart may be missing. Equal values may be shown once. Some results are limits rather than exact numbers.

The test deals with PIK3CD (Human) (UniProt O00329). In words: Assessment of PIK3CD Kinase Activity.
PIK3CD (Human), sequence (O00329 whole entry, looked up): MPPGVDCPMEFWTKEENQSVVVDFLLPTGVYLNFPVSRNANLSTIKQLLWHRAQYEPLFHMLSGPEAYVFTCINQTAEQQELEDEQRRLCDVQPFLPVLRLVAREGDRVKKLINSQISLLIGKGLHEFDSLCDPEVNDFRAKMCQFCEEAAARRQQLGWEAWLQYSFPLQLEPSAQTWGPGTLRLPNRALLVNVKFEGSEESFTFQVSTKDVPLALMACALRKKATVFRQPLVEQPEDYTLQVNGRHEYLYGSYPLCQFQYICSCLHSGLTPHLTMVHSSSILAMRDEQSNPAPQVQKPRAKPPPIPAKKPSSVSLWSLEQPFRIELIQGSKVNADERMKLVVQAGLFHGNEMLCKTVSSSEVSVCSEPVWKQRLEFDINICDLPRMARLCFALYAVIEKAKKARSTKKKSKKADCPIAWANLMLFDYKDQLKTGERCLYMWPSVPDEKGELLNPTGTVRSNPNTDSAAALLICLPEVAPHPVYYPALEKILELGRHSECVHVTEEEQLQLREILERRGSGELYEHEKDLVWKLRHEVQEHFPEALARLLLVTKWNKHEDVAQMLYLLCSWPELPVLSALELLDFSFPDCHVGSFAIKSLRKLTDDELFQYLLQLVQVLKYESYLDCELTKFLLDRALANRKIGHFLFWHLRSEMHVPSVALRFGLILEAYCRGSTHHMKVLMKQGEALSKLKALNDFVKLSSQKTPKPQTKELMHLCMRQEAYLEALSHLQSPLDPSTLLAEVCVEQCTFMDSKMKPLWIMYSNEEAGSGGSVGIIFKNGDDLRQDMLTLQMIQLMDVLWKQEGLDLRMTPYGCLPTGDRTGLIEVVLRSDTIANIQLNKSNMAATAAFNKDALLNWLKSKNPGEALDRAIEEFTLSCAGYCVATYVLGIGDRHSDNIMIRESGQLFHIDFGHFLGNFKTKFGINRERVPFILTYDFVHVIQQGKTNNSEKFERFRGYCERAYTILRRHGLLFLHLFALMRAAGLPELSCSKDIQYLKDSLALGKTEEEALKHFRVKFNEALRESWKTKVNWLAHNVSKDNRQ

For `CC(Nc1ncnc2[nH]cnc12)c1cc(F)c2cccnc2c1N1CCN(C(=O)c2cnn(C)c2)CC1` (stereo not given), the IC50 (commonly the point on the concentration scale where inhibition reaches its midpoint) is less than 0.05 µM.
For `CC(Nc1ncnc2[nH]cnc12)c1cc(Cl)c2ccnnc2c1-c1ccnc(F)c1` (stereo not given) the value was 0.5 to 1 µM; for `CC(Nc1ncnc2[nH]cnc12)c1cc(Cl)c2ccnnc2c1-c1cncc(F)c1` (stereo not given), 0.05 to 0.1 µM.
For `COC1CCCN(c2c(C(C)Nc3ncnc4[nH]cnc34)cc(Cl)c3cccnc23)C1` (stereo not given) the value was 0.25 to 0.5 µM and 0.1 to 0.25 µM.
For `CC(Nc1ncnc2[nH]cnc12)c1cc(Cl)c2cccnc2c1N1CCN(C(=O)c2cccnc2)CC1` (stereo not given) the value was less than 0.05 µM; for `COCC(=O)N1CCN(c2c(C(C)Nc3ncnc4[nH]cnc34)cc(Cl)c3cccnc23)CC1` (stereo not given), less than 0.05 µM; for `CC(Nc1ncnc2[nH]cnc12)c1cc(Cl)c2cccnc2c1N1CCN(C(=O)N(C)C)CC1` (stereo not given), less than 0.05 µM.
`CC(Nc1ncnc2[nH]cnc12)c1cc(Cl)c2cccnc2c1N1CCC(CO)CC1` (stereo not given) came in with a half-inhibitory concentration (IC50) of 0.1 to 0.25 µM.
For `CC(Nc1ncnc2[nH]cnc12)c1cc(Cl)c2cccnc2c1N1CCN(C(=O)c2cnccn2)CC1` (stereo not given) the value was less than 0.05 µM; for `CC(Nc1ncnc2[nH]cnc12)c1cc(Cl)c2cnn(C)c2c1-c1cc(F)cc(F)c1` (stereo not given), less than 0.05 µM.
With `CC(Nc1ncnc2[nH]cnc12)c1ccc2cccnc2c1-c1cncc(F)c1` (stereo not given) the figure was 0.5 to 1 µM.
For `CCc1cc(C(C)Nc2ncnc3[nH]cnc23)c(-c2cccc(F)c2)c2ncccc12` (stereo not given) the value was 0.05 to 0.1 µM.
In turn, `Cc1cc(C(C)Nc2ncnc3[nH]cnc23)c(-c2cccc(F)c2)c2ncccc12` (stereo not given) had an IC50 of 0.1 to 0.25 µM.
With `COC(=O)N1CCN(c2c(C(C)Nc3ncnc4[nH]cnc34)cc(Cl)c3cccnc23)CC1` (stereo not given) the figure was less than 0.05 µM.
For `CC(Nc1ncnc2[nH]cnc12)c1cc(Cl)c2cccnc2c1N1CCC(O)CC1` (stereo not given) the value was less than 0.05 µM.
With `CC(Nc1ncnc2[nH]cnc12)c1cc(Cl)c2cccnc2c1N1CCN(C(=O)c2ccncc2)CC1` (stereo not given) the figure was less than 0.05 µM; with `CC(Nc1ncnc2[nH]cnc12)c1cc(Cl)c2ccccc2c1-c1cccc(F)c1` (stereo not given), 0.1 to 0.25 µM.
Take `CC(Nc1ncnc2[nH]cnc12)c1cc(Cl)c2ccnnc2c1-c1cc(F)cc(F)c1` (stereo not given): the half-inhibitory concentration (IC50) was less than 0.05 µM.
With `COCCN1CCN(c2c(C(C)Nc3ncnc4[nH]cnc34)cc(Cl)c3cccnc23)CC1` (stereo not given) the figure was less than 0.05 µM; with `COC(=O)N[C@H]1CCN(c2c(C(C)Nc3ncnc4[nH]cnc34)cc(Cl)c3cccnc23)C1` (stereo not given in full), 0.05 to 0.1 µM and < 0.05 µM; with `CC(Nc1ncnc2[nH]cnc12)c1ccc2ccccc2c1-c1cccc(F)c1` (stereo not given), 0.1 to 0.25 µM.
For `COc1ccc(-c2c(C(C)Nc3ncnc4[nH]cnc34)cc(Cl)c3ccnnc23)cc1F` (stereo not given) the value was 0.5 to 1 µM; for `CC(Nc1ncnc2[nH]cnc12)c1cc(Cl)c2cccnc2c1N1CCN(C(=O)c2ccn(C)n2)CC1` (stereo not given), less than 0.05 µM; for `CC(Nc1ncnc2[nH]cnc12)c1cc(Cl)c2cccnc2c1N1CCC(NS(C)(=O)=O)CC1` (stereo not given), 0.1 to 0.25 µM.
The compound `CC(Nc1ncnc2[nH]cnc12)c1cc(Cl)c2cccnc2c1N1CCC(c2ccccc2)C1` (stereo not given) showed a half-maximal inhibitory concentration (IC50) of 0.25 to 0.5 µM.
With `CC(Nc1ncnc2[nH]cnc12)c1cc(Cl)c2ccncc2c1-c1cccc(F)c1` (stereo not given) the figure was less than 0.05 µM; with `CC(Nc1ncnc2[nH]cnc12)c1cc(F)c2cccnc2c1N1CCN(C2CCC2)CC1` (stereo not given), less than 0.05 µM; with `Cc1cc(C(C)Nc2ncnc3[nH]cnc23)c(-c2cc(F)cc(F)c2)c2nnccc12` (stereo not given), less than 0.05 µM.
With `C[C@@H](Nc1ncnc2[nH]cnc12)c1cc(F)c2cccnc2c1-c1cccc(F)c1` the figure was less than 0.05 µM.
With `CC(Nc1ncnc2[nH]cnc12)c1cc(Cl)c2ccnnc2c1-c1ccccc1F` (stereo not given) the figure was < 0.05 µM and 0.05 to 0.1 µM and 0.25 to 0.5 µM.
On to `CC(Nc1ncnc2[nH]cnc12)c1cc(Cl)c2cccnc2c1N1CCCC(F)C1` (stereo not given), for which the IC50 is 0.25 to 0.5 µM.
`CC(Nc1ncnc2[nH]cnc12)c1cc(Cl)c2cccnc2c1N1CCN(CCO)CC1` (stereo not given) displayed a half-maximal inhibitory concentration (IC50) of less than 0.05 µM.
With `CC(Nc1ncnc2[nH]cnc12)c1cc(Cl)c2cccnc2c1N1CCCC(CO)C1` (stereo not given) the figure was 0.1 to 0.25 µM.
For `CC(Nc1ncnc2[nH]cnc12)c1ccc2cccnc2c1-c1cc(F)cc(F)c1` (stereo not given) the value was 0.5 to 1 µM; for `CCC(=O)N[C@H]1CCN(c2c(C(C)Nc3ncnc4[nH]cnc34)cc(Cl)c3cccnc23)C1` (stereo not given in full), less than 0.05 µM.
With `CC(Nc1ncnc2[nH]cnc12)c1cc(Cl)c2cccnc2c1N1CCC(F)(F)CC1` (stereo not given) the figure was 0.5 to 1 µM; with `CC(Nc1nc(N)nc2[nH]cnc12)c1ccc2ccccc2c1-c1cncc(F)c1` (stereo not given), less than 0.05 µM.
Turning to `CC(Nc1ncnc2[nH]cnc12)c1cc(C#N)c2cccnc2c1-c1cccc(F)c1` (stereo not given), the IC50 is 0.05 to 0.1 µM.
As for `CC(Nc1ncnc2[nH]cnc12)c1cc(Cl)c2cccnc2c1N1CCN(C2CCCCC2)CC1` (stereo not given), the IC50 was in the range of 0.05 to 0.1 µM.
`CC(Nc1nc(N)nc2[nH]cnc12)c1cc(F)c2ccnnc2c1-c1cccc(F)c1` (stereo not given) came in with a 50% inhibitory concentration (IC50) of less than 0.05 µM.
Compound `CC(=O)NC1CCN(c2c(C(C)Nc3ncnc4[nH]cnc34)cc(Cl)c3cccnc23)CC1` (stereo not given) returned an IC50 of less than 0.05 µM.
With `CC(Nc1ncnc2[nH]cnc12)c1cc(Cl)c2cccnc2c1N1CCN(C(=O)c2ccccn2)CC1` (stereo not given) the figure was less than 0.05 µM; with `CC(Nc1ncnc2[nH]cnc12)c1cc(Cl)c2cccnc2c1N1CCN(C(=O)c2ccc(F)cc2)CC1` (stereo not given), 0.1 to 0.25 µM.
For `COC(=O)NC1CCN(c2c(C(C)Nc3ncnc4[nH]cnc34)cc(Cl)c3cccnc23)CC1` (stereo not given) the value was less than 0.05 µM.
For `COC1CCN(c2c(C(C)Nc3ncnc4[nH]cnc34)cc(Cl)c3cccnc23)C1` (stereo not given) the value was < 0.05 µM and 0.05 to 0.1 µM; for `CC(Nc1nc(N)nc2[nH]cnc12)c1ccc2ccccc2c1-c1cccc(F)c1` (stereo not given), 0.5 to 1 µM; for `CC(C)C(=O)N[C@H]1CCN(c2c(C(C)Nc3ncnc4[nH]cnc34)cc(Cl)c3cccnc23)C1` (stereo not given in full), less than 0.05 µM.
In turn, `Cc1nc(C(C)Nc2ncnc3[nH]cnc23)c(-c2cccc(F)c2)c2ccccc12` (stereo not given) gave an IC50 of 0.1 to 0.25 µM.
Compound `CCC(Nc1ncnc2[nH]cnc12)c1cc(Cl)c2ccnnc2c1-c1cccc(F)c1` (stereo not given) showed a 50% inhibitory concentration (IC50) of less than 0.05 µM.
For `CC(Nc1ncnc2[nH]cnc12)c1cc(Cl)c2cn[nH]c2c1-c1cccc(F)c1` (stereo not given) the value was less than 0.05 µM; for `CC(Nc1ncnc2[nH]cnc12)c1cc(Cl)c2cccnc2c1N1CCC(CCO)CC1` (stereo not given), 0.1 to 0.25 µM; for `COC1CCN(c2c(C(C)Nc3ncnc4[nH]cnc34)cc(Cl)c3cccnc23)CC1` (stereo not given), 0.05 to 0.1 µM.
For `CC(Nc1ncnc2[nH]cnc12)c1cc(Cl)c2cccnc2c1N1CCC(C#N)C1` (stereo not given) the value was 0.1 to 0.25 µM; for `CC(Nc1ncnc2[nH]cnc12)c1cc(Cl)c2cccnc2c1N1CC[C@H](NS(C)(=O)=O)C1` (stereo not given in full), 0.25 to 0.5 µM and < 0.05 µM.
For `CC(Nc1ncnc2[nH]cnc12)c1cc(Cl)c2cn[nH]c2c1-c1cc(F)cc(F)c1` (stereo not given) the value was less than 0.05 µM; for `CC(Nc1ncnc2[nH]cnc12)c1cc(Cl)c2cccnc2c1N1CCC(N2CCCCC2)CC1` (stereo not given), 0.05 to 0.1 µM; for `CC(Nc1ncnc2[nH]cnc12)c1cc(Cl)c2conc2c1-c1cccc(F)c1` (stereo not given), less than 0.05 µM.
For the compound `CC(Nc1ncnc2[nH]cnc12)c1cc(Cl)c2cccnc2c1N1CCN(C(=O)c2cccc(F)c2)CC1` (stereo not given), the IC50 fell in the range of 0.1 to 0.25 µM.
With `CC(Nc1ncnc2[nH]cnc12)c1cc(Cl)c2cccnc2c1N1CCC(C#N)CC1` (stereo not given) the figure was 0.1 to 0.25 µM; with `Cc1noc(C)c1C(=O)N1CCN(c2c(C(C)Nc3ncnc4[nH]cnc34)cc(Cl)c3cccnc23)CC1` (stereo not given), less than 0.05 µM.
With `CC(Nc1ncnc2[nH]cnc12)c1cc(Cl)c2cccnc2c1N1CCC[C@H](O)C1` (stereo not given in full) the figure was less than 0.05 µM; with `CC(Nc1ncnc2[nH]cnc12)c1cc(Cl)c2ccncc2c1N1CC[C@H](F)C1` (stereo not given in full), 0.25 to 0.5 µM.
With `Fc1cccc(-c2c(CNc3ncnc4[nH]cnc34)cc(Cl)c3ccnnc23)c1`, the IC50 lay in the range of 0.5 to 1 µM.
For `CC(Nc1ncnc2[nH]cnc12)c1cc(F)c2ccnnc2c1-c1cc(F)cc(F)c1` (stereo not given) the value was 0.1 to 0.25 µM.
With `CC(Nc1ncnc2[nH]cnc12)c1cc(Cl)c2cccnc2c1N1CCN(C(=O)c2ccccc2F)CC1` (stereo not given) the figure was 0.25 to 0.5 µM; with `CC(Nc1ncnc2[nH]cnc12)c1cc(Cl)c2cccnc2c1N1CCN(C(=O)C2CCC2)CC1` (stereo not given), less than 0.05 µM.
For `CC(Nc1ncnc2[nH]cnc12)c1ccc2cccnc2c1-c1cccc(F)c1` (stereo not given) the value was 0.25 to 0.5 µM.
For the compound `CC(Nc1ncnc2[nH]cnc12)c1nc(C#N)c2ccccc2c1-c1cccc(F)c1` (stereo not given), the 50% inhibitory concentration (IC50) fell in the range of 0.05 to 0.1 µM.
With `CC(Nc1ncnc2[nH]cnc12)c1cc(Cl)c2cccnc2c1N1CC[C@@H](O)C1` (stereo not given in full) the figure was less than 0.05 µM.
With `CC(Nc1ncnc2[nH]cnc12)c1cc(F)c2cccnc2c1N1CC[C@@H](O)C1` (stereo not given in full) the figure was 0.1 to 0.25 µM; with `Cc1cc(C(=O)N2CCN(c3c(C(C)Nc4ncnc5[nH]cnc45)cc(Cl)c4cccnc34)CC2)no1` (stereo not given), less than 0.05 µM; with `CC(Nc1ncnc2[nH]cnc12)c1cc(Cl)c2cccnc2c1N1CCN(C2CC2)CC1` (stereo not given), less than 0.05 µM.
With `CC(Nc1ncnc2[nH]cnc12)c1cc(Cl)c2cccnc2c1N1CCN(CC(=O)N(C)C)CC1` (stereo not given) the figure was less than 0.05 µM; with `CC(Nc1ncnc2[nH]cnc12)c1cc(Cl)c2cccnc2c1N1CCN(C(=O)c2ccccc2)CC1` (stereo not given), 0.05 to 0.1 µM.
As for `CC(Nc1ncnc2[nH]cnc12)c1cc(Cl)c2cccnc2c1-c1cccc(F)c1` (stereo not given), the IC50 was less than 0.05 µM.
For `CC(Nc1ncnc2[nH]cnc12)c1ccc2ccccc2c1-c1cncc(F)c1` (stereo not given) the value was less than 0.05 µM; for `CC(Nc1ncnc2[nH]cnc12)c1ccc2cccnc2c1-c1ccccc1F` (stereo not given), 0.5 to 1 µM; for `CC(Nc1ncnc2[nH]cnc12)c1cc(Cl)c2cccnc2c1N1CCN(Cc2ccncc2)CC1` (stereo not given), less than 0.05 µM.
For `CC(=O)N[C@H]1CCN(c2c(C(C)Nc3ncnc4[nH]cnc34)cc(Cl)c3cccnc23)C1` (stereo not given in full) the value was less than 0.05 µM; for `CC(Nc1ncnc2[nH]cnc12)c1cc(Cl)c2cccnc2c1-c1ccccc1F` (stereo not given), 0.1 to 0.25 µM and < 0.05 µM.
With `C[C@H](Nc1ncnc2[nH]cnc12)c1cc(F)c2cccnc2c1-c1cccc(F)c1` the figure was less than 0.05 µM.
In the case of `CC(Nc1ncnc2[nH]cnc12)c1cc(F)c2ccnnc2c1-c1cccc(F)c1` (stereo not given), the concentration for half-maximal inhibition (IC50) is 0.1 to 0.25 µM and < 0.05 µM.
Compound `CC(Nc1ncnc2[nH]cnc12)c1cc(Cl)c2cccnc2c1N1CCN(C2CCC2)CC1` (stereo not given) yielded an IC50 of less than 0.05 µM.
For `CC(=O)N1CCC(C(=O)N2CCN(c3c(C(C)Nc4ncnc5[nH]cnc45)cc(Cl)c4cccnc34)CC2)CC1` (stereo not given) the value was less than 0.05 µM; for `Cc1cc(C(C)Nc2ncnc3[nH]cnc23)c(-c2cccc(F)c2)c2nnccc12` (stereo not given), < 0.05 µM and 0.5 to 1 µM.
